# Source: patent US20260284113A1, “COMPOSITIONS AND METHODS FOR TREATING PERIPHERAL VASCULAR DISEASE” (MAYO FOUNDATION FOR MEDICAL EDUCATION AND RESEARCH, priority 2022, published 2026)
# System: HUVECs
# Experiment: Matrigel tube formation assay
# Assay type: cell-based, human
# Details: HUVECs on Matrigel, six hours; PEP 2.5×10^11 vesicles/mL, VEGF 100 ng/ml
# Protocol: 96-well plates (Corning, Inc., Corning, NY) were pre-coated with MATRIGEL (Corning Life Sciences, Corning, NY) and allowed to solidify for one hour at 37° C. before cell seeding. GFP-tagged HUVECs (1×10^4 cells/well) were then added to individual wells in medium designated treatment. Images were acquired at time 0, one hour, three hours, and six hours post-treatment with an inverted microscope (DMI6000 B, Leica Microsystems GmbH, Wetzlar, Germany). All images were analyzed with Angiotool (Zudaire et al., 2011, PLoS One 6:e27385).
substance,measurement,value
VEGF,number of junctions per field,59.75
same,total length of branches per field,2459.59 pixels
